Data taken from BindingDB's records for doi:10.1021/jm00025a010 (Eli Lilly, 1995).

Molecular target: T1, Gag-Pol polyprotein [588-1027]/[588-1147] (Human immunodeficiency virus 1, UniProt P04585)
T1 construct: 588-1027; 588-1147
Assay: HIV-1 RT Assay

CCc1csc(NC(=S)NCCc2c(F)cccc2F)n1 [N-(2-(2,6-Difluorophenyl)ethyl)-N -(2-(4-ethylthiazolyl))thiourea]
IC50 (pH 7.8, 37 °C): 0.0055 µM

O=C(O)c1csc(/N=C(\S)NCCc2ccccc2)n1 [2-{[(2-phenylethyl)carbamothioyl]amino}-1,3-thiazole-4-carboxylic acid]
IC50 (pH 7.8, 37 °C): > 10 µM

S=C(NCCc1ccccc1)Nc1ncccc1Br [N-(2-Phenethyl)-N -(2-(3-bromopyridyl))thiourea]
IC50 (pH 7.8, 37 °C): > 10 µM

S=C(NCCc1ccccc1)Nc1cc[nH]n1 [N-(2-Phenethyl)-N -(3-pyrazolyl)thiourea]
IC50 (pH 7.8, 37 °C): > 10 µM

S=C(NCCc1ccncc1)Nc1nccs1 [1-[2-(pyridin-4-yl)ethyl]-3-1,3-thiazol-2-ylthiourea]
IC50: > 10 µM

CCCCCCOc1cccc(CC/N=C(\S)Nc2nccs2)c1 [N-(2-(3-(Hexyloxy)phenethyl))-N -(2-thiazolyl)thiourea]
IC50: > 10 µM

S=C(NCCc1cccnc1)Nc1nccs1 [1-[2-(pyridin-3-yl)ethyl]-3-1,3-thiazol-2-ylthiourea]
IC50: > 10 µM

Cc1csc(NC(=S)NCCc2ccccc2)n1 [3-(4-methyl-1,3-thiazol-2-yl)-1-(2-phenylethyl)thiourea]
IC50 (pH 7.8, 37 °C): 0.1 µM
